Test system: 843126-344-R-J1-PDC complex spheroid viability
Test: Anticancer human tumor 843126-344-R-J1-PDC patient-derived melanoma cell line growth inhibition [POLQ]
Details: for IC50: curve of first compound; for viability, T/C: stronger effect = lower value; active = viability on the fitted dose curve at most 10% of control; inactive = the rest
Summary of the method: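 Patient-derived tumour cells were co-cultured with HUVEC and mesenchymal stem cells as multicellular spheroids at 37 °C. They were treated with POLQ inhibitors (novobiocin, ART-558, RP6685) alone or combined with other agents. Top concentrations were at or near clinical Cmax (otherwise 10 microM; SN-38 at 1 microM), decreasing in half-log steps.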

[1] = second compound 0.0316 µM, first compound 0.0316 µM
[2] = second compound 0.0316 µM, first compound 0.1 µM
[3] = second compound 0.1 µM, first compound 0.0316 µM
[4] = second compound 0.1 µM, first compound 0.1 µM
[5] = second compound 0.316 µM, first compound 0.0316 µM
[6] = second compound 0.316 µM, first compound 0.1 µM
[7] = second compound 1 µM, first compound 0.0316 µM
[8] = second compound 1 µM, first compound 0.1 µM
[9] = second compound 3.16 µM, first compound 0.0316 µM
[10] = second compound 3.16 µM, first compound 0.1 µM
[11] = second compound 10 µM, first compound 0.0316 µM
[12] = second compound 10 µM, first compound 0.1 µM
[13] = second compound 0.0316 µM, first compound 0.316 µM
[14] = second compound 0.0316 µM, first compound 1 µM
[15] = second compound 0.0316 µM, first compound 3.16 µM
[16] = second compound 0.0316 µM, first compound 10 µM
[17] = second compound 0.1 µM, first compound 0.316 µM
[18] = second compound 0.1 µM, first compound 1 µM
[19] = second compound 0.1 µM, first compound 3.16 µM
[20] = second compound 0.1 µM, first compound 10 µM
[21] = second compound 0.316 µM, first compound 0.316 µM
[22] = second compound 0.316 µM, first compound 1 µM
[23] = second compound 0.316 µM, first compound 3.16 µM
[24] = second compound 0.316 µM, first compound 10 µM
[25] = second compound 1 µM, first compound 0.316 µM
[26] = second compound 1 µM, first compound 1 µM
[27] = second compound 1 µM, first compound 3.16 µM
[28] = second compound 1 µM, first compound 10 µM
[29] = second compound 3.16 µM, first compound 0.316 µM
[30] = second compound 3.16 µM, first compound 1 µM
[31] = second compound 3.16 µM, first compound 3.16 µM
[32] = second compound 3.16 µM, first compound 10 µM
[33] = second compound 10 µM, first compound 0.316 µM
[34] = second compound 10 µM, first compound 1 µM
[35] = second compound 10 µM, first compound 3.16 µM
[36] = second compound 10 µM, first compound 10 µM
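Throughout, for viability, T/C: spheroids exposed to drugs for seven days before readout.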

CC[C@@]1(O)C(=O)OCc2c1cc1n(c2=O)Cc2cc3c(CN(C)C)c(O)ccc3nc2-1 + COC1C(OC(N)=O)C(O)C(Oc2ccc3c(O)c(NC(=O)c4ccc(O)c(CC=C(C)C)c4)c(=O)oc3c2C)OC1(C)C
76.9 nM: IC50 (second compound 1 µM)
> 100 nM: IC50 (second compound 0.0316 µM) | IC50 (second compound 0.316 µM) | IC50 (second compound 3.16 µM) | IC50 (second compound 10 µM)
inactive: viability, T/C (second compound 0.0316 µM, first compound 0.000316 µM) 94.8% | viability, T/C (second compound 0.0316 µM, first compound 0.001 µM) 89.7% | viability, T/C (second compound 0.0316 µM, first compound 0.00316 µM) 104% | viability, T/C (second compound 0.0316 µM, first compound 0.01 µM) 110% | viability, T/C [1] 57.3% | viability, T/C [2] 52.5% | viability, T/C (second compound 0.1 µM, first compound 0.000316 µM) 95.7% | viability, T/C (second compound 0.1 µM, first compound 0.001 µM) 104% | viability, T/C (second compound 0.1 µM, first compound 0.00316 µM) 123% | viability, T/C (second compound 0.1 µM, first compound 0.01 µM) 91.4% | viability, T/C [3] 78.2% | viability, T/C [4] 48.7% | viability, T/C (second compound 0.316 µM, first compound 0.000316 µM) 114% | viability, T/C (second compound 0.316 µM, first compound 0.001 µM) 99.2% | viability, T/C (second compound 0.316 µM, first compound 0.00316 µM) 91.1% | viability, T/C (second compound 0.316 µM, first compound 0.01 µM) 70.9% | viability, T/C [5] 91.3% | viability, T/C [6] 46.6% | viability, T/C (second compound 1 µM, first compound 0.000316 µM) 84.5% | viability, T/C (second compound 1 µM, first compound 0.001 µM) 83.8% | viability, T/C (second compound 1 µM, first compound 0.00316 µM) 102% | viability, T/C (second compound 1 µM, first compound 0.01 µM) 82.4% | viability, T/C [7] 61.5% | viability, T/C [8] 46.6% | viability, T/C (second compound 3.16 µM, first compound 0.000316 µM) 92.3% | viability, T/C (second compound 3.16 µM, first compound 0.001 µM) 96.3% | viability, T/C (second compound 3.16 µM, first compound 0.00316 µM) 101% | viability, T/C (second compound 3.16 µM, first compound 0.01 µM) 91% | viability, T/C [9] 63.2% | viability, T/C [10] 54% | viability, T/C (second compound 10 µM, first compound 0.000316 µM) 95.5% | viability, T/C (second compound 10 µM, first compound 0.001 µM) 109% | viability, T/C (second compound 10 µM, first compound 0.00316 µM) 110% | viability, T/C (second compound 10 µM, first compound 0.01 µM) 119% | viability, T/C [11] 74.1% | viability, T/C [12] 54%
96 nM: IC50 (second compound 0.1 µM)

COc1cc(C2c3cc4c(cc3C(OC3OC5COC(C)OC5C(O)C3O)C3COC(=O)C23)OCO4)cc(OC)c1O (stereo unspecified) + Cc1cccc(N(C)C(=O)C2C(O)CCN2c2nc(C)cc(C(F)(F)F)c2C#N)c1
> 10000 nM: IC50 (second compound 1 µM)
8260 nM: IC50 (second compound 0.1 µM)
5470 nM: IC50 (second compound 3.16 µM)
6010 nM: IC50 (second compound 0.316 µM)
inactive: viability, T/C [1] 86.5% | viability, T/C [2] 81.5% | viability, T/C [13] 77.9% | viability, T/C [14] 92.3% | viability, T/C [15] 55.3% | viability, T/C [16] 49.3% | viability, T/C [3] 83.2% | viability, T/C [4] 103% | viability, T/C [17] 100% | viability, T/C [18] 68.9% | viability, T/C [19] 72.8% | viability, T/C [20] 45.5% | viability, T/C [5] 82.1% | viability, T/C [6] 84.1% | viability, T/C [21] 92.7% | viability, T/C [22] 71.8% | viability, T/C [23] 61.2% | viability, T/C [24] 42.1% | viability, T/C [7] 86.1% | viability, T/C [8] 90.3% | viability, T/C [25] 86.6% | viability, T/C [26] 82.3% | viability, T/C [27] 56.9% | viability, T/C [28] 50.2% | viability, T/C [9] 77.9% | viability, T/C [10] 79.7% | viability, T/C [29] 84.4% | viability, T/C [30] 75.9% | viability, T/C [31] 54.2% | viability, T/C [32] 45.5% | viability, T/C [11] 84.1% | viability, T/C [12] 83.1% | viability, T/C [33] 79% | viability, T/C [34] 74% | viability, T/C [35] 50.6% | viability, T/C [36] 44.8%
3780 nM: IC50 (second compound 10 µM)
8760 nM: IC50 (second compound 0.0316 µM)

CC1COCCN1c1cc(-c2ccnn2C)c2ccnc(-c3ccn[nH]3)c2n1 (stereo unspecified) + Cc1cccc(N(C)C(=O)C2C(O)CCN2c2nc(C)cc(C(F)(F)F)c2C#N)c1
1870 nM: IC50 (second compound 10 µM)
1300 nM: IC50 (second compound 0.1 µM)
2070 nM: IC50 (second compound 0.316 µM)
1970 nM: IC50 (second compound 0.0316 µM)
inactive: viability, T/C [1] 85.6% | viability, T/C [2] 77.7% | viability, T/C [13] 63.8% | viability, T/C [14] 55.1% | viability, T/C [15] 50.3% | viability, T/C [16] 32.7% | viability, T/C [3] 80.9% | viability, T/C [4] 67.5% | viability, T/C [17] 64.2% | viability, T/C [18] 52.6% | viability, T/C [19] 42.8% | viability, T/C [20] 28.4% | viability, T/C [5] 87.2% | viability, T/C [6] 92.2% | viability, T/C [21] 64.7% | viability, T/C [22] 63.9% | viability, T/C [23] 43% | viability, T/C [24] 36.7% | viability, T/C [7] 88.1% | viability, T/C [8] 85% | viability, T/C [25] 68.8% | viability, T/C [26] 55.6% | viability, T/C [27] 42.6% | viability, T/C [28] 33.3% | viability, T/C [9] 89% | viability, T/C [10] 82.2% | viability, T/C [29] 68.7% | viability, T/C [30] 54.2% | viability, T/C [31] 44.8% | viability, T/C [32] 35% | viability, T/C [11] 82.5% | viability, T/C [12] 83.5% | viability, T/C [33] 66% | viability, T/C [34] 57.6% | viability, T/C [35] 45.1% | viability, T/C [36] 33.1%
1660 nM: IC50 (second compound 3.16 µM)
1580 nM: IC50 (second compound 1 µM)

From PubChem BioAssay AID1963837 (Molecular Pharmacology Branch, DTP, NCI, 2024)
